Measurements taken from patent publication EP4790066A1, “GLP-1R/GIPR/GCGR TRIPLE AGONIST ANALOGUE AND USE THEREOF” (Shenzhen Bay Laboratory, priority 2023, dated 2025).
Values belong to the compound of their own block, whether it stands above or below them.

Assays:
[1] = target: T1, GLP-1R (Homo sapiens, UniProt P43220); experiment: CreLuc method (CRE-luciferase reporter), HEK293/pGM-CREB-L-Luc/GLP-1R pool; assay type: cell-based; conditions: 6 h incubation, read-out: EC50 (pM) for each receptor GLP-1R
T1 construct: expressed in transfected cells
Summary of the method: (§1)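 Stable HEK293 pools co-expressing each receptor with a CRE-luciferase reporter were plated at 20,000 cells/well in freestyle medium and treated with compound dilution series for 6 h at 37 °C. Luminescence was read with ONE-GLO to derive EC50.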

[2] = target: T2, GIPR (Homo sapiens, UniProt P48546); experiment: CreLuc method (CRE-luciferase reporter), HEK293/pGM-CREB-L-Luc/GIPR pool; assay type: cell-based; conditions: 6 h incubation, read-out: EC50 (pM) for each receptor GIPR
T2 construct: expressed in transfected cells
T2 sequence (P48546 22-466): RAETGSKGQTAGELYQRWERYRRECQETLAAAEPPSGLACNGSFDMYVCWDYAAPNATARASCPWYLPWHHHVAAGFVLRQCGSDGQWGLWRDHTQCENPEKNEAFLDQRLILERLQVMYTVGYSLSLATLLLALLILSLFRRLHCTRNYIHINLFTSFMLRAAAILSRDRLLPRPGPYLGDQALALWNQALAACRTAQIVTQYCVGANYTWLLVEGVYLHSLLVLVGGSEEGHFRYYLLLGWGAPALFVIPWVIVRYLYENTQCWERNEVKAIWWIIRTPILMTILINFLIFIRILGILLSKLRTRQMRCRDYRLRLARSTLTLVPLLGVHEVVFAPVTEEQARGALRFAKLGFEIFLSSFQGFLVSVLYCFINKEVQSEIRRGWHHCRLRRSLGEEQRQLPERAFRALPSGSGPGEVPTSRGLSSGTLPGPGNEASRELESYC
Summary of the method: as §1

[3] = target: T3, GCGR (Homo sapiens, UniProt P47871); experiment: CreLuc method (CRE-luciferase reporter), 293HEK/pGM-CREB-L-Luc/GCGR pool; assay type: cell-based; conditions: 6 h incubation, read-out: EC50 (pM) for each receptor GCGR
T3 construct: expressed in transfected cells
Summary of the method: as §1

[4] = in vivo; set-up: species or system male SD rats; conditions: rat
Experimental: The pharmacokinetic behavior of target peptide derivatives (or polypeptide derivatives) prepared in Example 1 and Example 2, i.e., TG1-TG94 in rodents was tested. The specific steps are as follows:
The target peptide derivatives (TG1-TG94) to be tested were administered to male SD rats via subcutaneous injection (SC, 3 mg/kg; drug vehicle: PBS, concentration: 1.5 mg/mL; administration volume: 2 mL) and intravenous injection (IV, 1 mg/kg; drug vehicle: PBS, concentration: 0.5 mg/mL; administration volume: 2 mL) as a single dose, respectively. Whole blood samples were collected from the jugular vein or other appropriate vein at the following time points after administration: for SC, 15 min, 30 min, 1 h, 2 h, 4 h, 6 h, 8 h, 24 h, 48 h, 72 h, 96 h, 120 h, and 168 h; for IV, 5 min, 15 min, 30 min, 1 h, 2 h, 4 h, 8 h, 24 h, 48 h, 72 h, 96 h, 120 h, and 168 h. 0.2 mL of blood was collected and transferred into a labeled EDTA-K2 anticoagulant tube. The tube was gently inverted to ensure thorough mixing of the anticoagulant (EDTA-K2) with the blood and immediately placed on wet ice. Plasma separation was performed as soon as possible by centrifugation under the following conditions: 4°C, 6800xg, for 6 min. The plasma samples were stored in a refrigerator at no higher than -20°C and used for analysis when needed.
Under the condition of yellow light in an ice-water bath, except for blank samples, 300 µL of precipitant containing an internal standard was added to a 96-well plate containing 20 µL of standard curve sample, quality control sample, or unknown sample; 300 µL of acetonitrile was added to the blank sample. The mixture was vortexed, mixed well, and then centrifuged. 150 µL of the supernatant after centrifugation was transferred to a new 96-well plate, and 150 µL of ultrapure water was added and mixed well. The above samples were subjected to quantitative analysis using LC-MS analysis with XB-C18 (2.1 * 100 mm, 3 µm) chromatography for gradient elution. The mobile phases used were: mobile phase A = 0.1% formic acid-water; mobile phase B = acetonitrile. Phoenix WinNonlin software was used to calculate the pharmacokinetic parameters. […] Table 5A: Pharmacokinetic parameters of target peptide derivatives

T3 sequence (P47871 26-477, species assumed): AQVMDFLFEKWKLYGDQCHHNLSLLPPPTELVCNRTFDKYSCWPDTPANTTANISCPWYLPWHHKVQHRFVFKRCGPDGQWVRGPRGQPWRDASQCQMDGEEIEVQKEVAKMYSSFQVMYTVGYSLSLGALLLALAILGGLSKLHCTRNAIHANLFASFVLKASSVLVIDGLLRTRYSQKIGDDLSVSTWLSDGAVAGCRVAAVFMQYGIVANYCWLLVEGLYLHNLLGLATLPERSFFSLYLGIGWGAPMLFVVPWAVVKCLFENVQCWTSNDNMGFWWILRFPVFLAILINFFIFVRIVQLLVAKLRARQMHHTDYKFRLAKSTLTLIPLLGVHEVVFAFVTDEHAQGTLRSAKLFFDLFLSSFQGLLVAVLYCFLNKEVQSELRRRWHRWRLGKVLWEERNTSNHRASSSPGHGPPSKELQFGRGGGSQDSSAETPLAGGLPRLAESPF
T1 sequence (P43220 24-463, species assumed): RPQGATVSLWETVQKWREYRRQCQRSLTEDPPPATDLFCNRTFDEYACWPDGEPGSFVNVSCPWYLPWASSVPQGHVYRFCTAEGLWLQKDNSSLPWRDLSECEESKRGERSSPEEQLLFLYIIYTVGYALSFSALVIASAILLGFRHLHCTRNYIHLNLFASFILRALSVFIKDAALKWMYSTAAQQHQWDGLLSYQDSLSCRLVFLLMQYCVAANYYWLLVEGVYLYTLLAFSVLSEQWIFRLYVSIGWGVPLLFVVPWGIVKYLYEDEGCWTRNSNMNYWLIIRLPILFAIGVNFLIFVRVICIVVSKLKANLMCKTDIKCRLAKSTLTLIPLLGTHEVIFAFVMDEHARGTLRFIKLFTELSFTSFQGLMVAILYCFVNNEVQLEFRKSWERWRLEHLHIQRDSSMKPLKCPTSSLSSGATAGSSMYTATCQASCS

EC50 [1]: 171 pM
EC50 [2]: 27.6 pM
EC50 [3]: 172 pM
AUC(0-inf) ([4]; male, SD, iv, 1 mg/kg): 257 µg·h/mL
AUC(0-t) ([4]; male, SD, iv, 1 mg/kg): 254 µg·h/mL
MRT ([4]; male, SD, iv, 1 mg/kg): 21.4 h
Vd ([4]; male, SD, iv, 1 mg/kg): 0.0891 L/kg
clearance ([4]; male, SD, iv, 1 mg/kg): 0.0706 mL/min/kg
half-life ([4]; male, SD, iv, 1 mg/kg): 13.9 h
bioavailability ([4]; male, SD, sc): 31.8%
AUC(0-inf) ([4]; male, SD, sc, 3 mg/kg): 245 µg·h/mL
AUC(0-t) ([4]; male, SD, sc, 3 mg/kg): 243 µg·h/mL
CL/F ([4]; male, SD, sc, 3 mg/kg): 0.204 mL/min/kg
Cmax ([4]; male, SD, sc, 3 mg/kg): 4880 ng/mL
MRT ([4]; male, SD, sc, 3 mg/kg): 32.3 h
Tmax ([4]; male, SD, sc, 3 mg/kg): 24 h
half-life ([4]; male, SD, sc, 3 mg/kg): 15.6 h
AUC0-t /AUC0-inf ([4]; iv, 1 mg/kg): 0.989
Kel ([4]; iv, 1 mg/kg): 0.0504 h⁻¹
AUC0-t /AUC0-inf ([4]; sc, 3 mg/kg): 0.993
Vz/F ([4]; sc, 3 mg/kg): 0.276 L/kg
Compound: CC[C@H](C)[C@H](NC(=O)[C@H](Cc1ccccc1)NC(=O)[C@H](C)NC(=O)[C@@H]1CCCCNC(=O)CN(C(=O)CCCNC(=O)COCCOCCNC(=O)COCCOCCNC(=O)CC[C@H](NC(=O)CCCCCCCCCCCCCCCCCCC(=O)O)C(=O)O)CC(=O)NCCCC[C@H](NC(=O)[C@H](CCCCN)NC(=O)[C@H](CC(=O)O)NC(=O)[C@H](CC(C)C)NC(=O)[C@](C)(CC(C)C)NC(=O)[C@@H](NC(=O)[C@H](CO)NC(=O)[C@H](Cc2ccc(O)cc2)NC(=O)[C@H](CC(=O)O)NC(=O)[C@H](CO)NC(=O)[C@@H](NC(=O)[C@H](Cc2ccccc2F)NC(=O)[C@@H](NC(=O)CNC(=O)[C@H](CCC(N)=O)NC(=O)C(C)(C)NC(=O)[C@@H](N)Cc2ccc(O)cc2)[C@@H](C)O)[C@@H](C)O)[C@@H](C)CC)C(=O)N[C@@H](C)C(=O)N[C@@H](CCC(N)=O)C(=O)N1)C(=O)N[C@@H](CCC(=O)O)C(=O)N[C@@H](Cc1ccc(O)cc1)C(=O)N[C@@H](CC(C)C)C(=O)N[C@@H](CC(C)C)C(=O)N[C@@H](C)C(=O)NCC(=O)NCC(=O)N1CCC[C@H]1C(=O)N[C@@H](CO)C(=O)N[C@@H](CO)C(=O)NCC(=O)N[C@@H](C)C(=O)N1CCC[C@H]1C(=O)N1CCC[C@H]1C(=O)N1CCC[C@H]1C(=O)N[C@@H](CO)C(N)=O [TG87]

Compound: CC[C@H](C)[C@@H]1NC(=O)[C@H](Cc2ccccc2)NC(=O)[C@@H](NC(=O)C(C)(C)NC(=O)[C@H](CCC(N)=O)NC(=O)[C@H](C)NC(=O)[C@H](CCCCNC(C)=O)NC(=O)[C@H](CCCCN)NC(=O)[C@H](CC(=O)O)NC(=O)[C@H](CC(C)C)NC(=O)[C@](C)(CC(C)C)NC(=O)[C@@H](NC(=O)[C@H](CO)NC(=O)[C@H](Cc2ccncc2)NC(=O)[C@H](CC(=O)O)NC(=O)[C@H](CO)NC(=O)[C@@H](NC(=O)[C@H](Cc2ccccc2)NC(=O)[C@@H](NC(=O)CNC(=O)[C@H](CCC(N)=O)NC(=O)C(C)(C)NC(=O)[C@@H](N)Cc2ccc(O)cc2)[C@@H](C)O)[C@@H](C)O)[C@@H](C)CC)CSCC(=O)NCCN(C(=O)CCC(=O)NCCOCCOCC(=O)NCCOCCOCC(=O)NCCCC[C@H](NC(=O)CCCCCCCCCCCCCCCCCCC(=O)O)C(=O)O)CCNC(=O)CSC[C@@H](C(=O)NCC(=O)NCC(=O)N2CCC[C@H]2C(=O)N[C@@H](CO)C(=O)N[C@@H](CO)C(=O)NCC(=O)N[C@@H](C)C(=O)N2CCC[C@H]2C(=O)N2CCC[C@H]2C(=O)N2CCC[C@H]2C(=O)N[C@@H](CO)C(N)=O)NC(=O)[C@H](CC(C)C)NC(=O)[C@H](CC(C)C)NC(=O)[C@H](Cc2ccc(O)cc2)NC(=O)[C@H](CCC(=O)O)NC1=O [TG38]
EC50 [1]: 70.2 pM
EC50 [2]: 14.5 pM
EC50 [3]: 232 pM
